Data published in ChEMBL document CHEMBL5291721, “A preclinical secondary pharmacology resource illuminates target-adverse drug reaction associations of marketed drugs” (Nat Commun, 2023).

Tests used:
[1] = molecular target: T1, Cholecystokinin receptor type A (Homo sapiens, UniProt P32238)
T1 sequence (P32238 whole entry): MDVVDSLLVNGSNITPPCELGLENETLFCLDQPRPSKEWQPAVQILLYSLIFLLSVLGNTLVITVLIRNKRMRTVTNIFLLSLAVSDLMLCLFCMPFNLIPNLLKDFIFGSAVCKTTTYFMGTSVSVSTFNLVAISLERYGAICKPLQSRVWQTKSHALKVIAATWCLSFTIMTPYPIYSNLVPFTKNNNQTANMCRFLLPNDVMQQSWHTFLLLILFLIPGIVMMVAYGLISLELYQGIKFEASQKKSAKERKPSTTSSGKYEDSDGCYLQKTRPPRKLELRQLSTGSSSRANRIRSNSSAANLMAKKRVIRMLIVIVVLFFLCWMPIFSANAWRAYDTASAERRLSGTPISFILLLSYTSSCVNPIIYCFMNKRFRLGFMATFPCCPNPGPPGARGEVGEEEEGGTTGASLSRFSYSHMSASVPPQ

Vasopressin V1a receptor = Vasopressin V1a receptor (Homo sapiens, UniProt P37288)
Vasopressin V1a receptor, sequence (P37288 whole entry): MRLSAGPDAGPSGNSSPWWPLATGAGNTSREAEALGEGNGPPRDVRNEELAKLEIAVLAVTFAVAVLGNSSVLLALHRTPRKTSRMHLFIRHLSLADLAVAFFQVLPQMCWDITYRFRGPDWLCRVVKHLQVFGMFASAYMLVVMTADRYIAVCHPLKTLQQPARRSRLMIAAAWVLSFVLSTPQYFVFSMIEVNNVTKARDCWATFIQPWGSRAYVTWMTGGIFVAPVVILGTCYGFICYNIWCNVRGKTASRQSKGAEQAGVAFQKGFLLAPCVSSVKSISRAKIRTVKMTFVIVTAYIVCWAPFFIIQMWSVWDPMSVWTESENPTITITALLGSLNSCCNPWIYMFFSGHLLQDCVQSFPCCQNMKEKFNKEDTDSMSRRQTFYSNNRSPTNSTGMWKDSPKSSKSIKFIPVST

[2] = molecular target: Beta-1 adrenergic receptor (Homo sapiens, UniProt P08588); type: functional
Beta-1 adrenergic receptor, sequence (P08588 whole entry): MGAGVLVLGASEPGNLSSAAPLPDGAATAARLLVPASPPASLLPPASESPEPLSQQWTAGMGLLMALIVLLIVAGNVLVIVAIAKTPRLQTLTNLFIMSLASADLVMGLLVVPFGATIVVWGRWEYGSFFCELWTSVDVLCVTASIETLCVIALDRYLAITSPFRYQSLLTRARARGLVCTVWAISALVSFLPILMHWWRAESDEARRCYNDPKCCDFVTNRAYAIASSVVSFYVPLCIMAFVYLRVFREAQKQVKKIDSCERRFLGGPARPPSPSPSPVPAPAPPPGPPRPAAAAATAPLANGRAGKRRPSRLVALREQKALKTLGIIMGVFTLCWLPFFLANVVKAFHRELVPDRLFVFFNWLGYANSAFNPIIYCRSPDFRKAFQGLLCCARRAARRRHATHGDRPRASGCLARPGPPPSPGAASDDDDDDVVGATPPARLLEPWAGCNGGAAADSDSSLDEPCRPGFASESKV

[3] = molecular target: Growth hormone secretagogue receptor type 1 (Homo sapiens, UniProt Q92847)
Growth hormone secretagogue receptor type 1, sequence (Q92847 whole entry): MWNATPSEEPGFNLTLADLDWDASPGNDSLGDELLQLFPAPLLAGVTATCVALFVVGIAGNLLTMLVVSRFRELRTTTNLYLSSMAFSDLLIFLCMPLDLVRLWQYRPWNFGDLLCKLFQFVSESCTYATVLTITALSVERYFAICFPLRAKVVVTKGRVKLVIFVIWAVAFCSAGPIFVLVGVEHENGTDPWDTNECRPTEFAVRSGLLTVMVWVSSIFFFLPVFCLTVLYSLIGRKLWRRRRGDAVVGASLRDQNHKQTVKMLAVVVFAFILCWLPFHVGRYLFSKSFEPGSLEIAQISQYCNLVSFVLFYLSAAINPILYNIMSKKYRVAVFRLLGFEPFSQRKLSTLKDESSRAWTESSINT

Progesterone receptor = molecular target: T2, Progesterone receptor (Homo sapiens, UniProt P06401); type: functional
T2 sequence (P06401 whole entry): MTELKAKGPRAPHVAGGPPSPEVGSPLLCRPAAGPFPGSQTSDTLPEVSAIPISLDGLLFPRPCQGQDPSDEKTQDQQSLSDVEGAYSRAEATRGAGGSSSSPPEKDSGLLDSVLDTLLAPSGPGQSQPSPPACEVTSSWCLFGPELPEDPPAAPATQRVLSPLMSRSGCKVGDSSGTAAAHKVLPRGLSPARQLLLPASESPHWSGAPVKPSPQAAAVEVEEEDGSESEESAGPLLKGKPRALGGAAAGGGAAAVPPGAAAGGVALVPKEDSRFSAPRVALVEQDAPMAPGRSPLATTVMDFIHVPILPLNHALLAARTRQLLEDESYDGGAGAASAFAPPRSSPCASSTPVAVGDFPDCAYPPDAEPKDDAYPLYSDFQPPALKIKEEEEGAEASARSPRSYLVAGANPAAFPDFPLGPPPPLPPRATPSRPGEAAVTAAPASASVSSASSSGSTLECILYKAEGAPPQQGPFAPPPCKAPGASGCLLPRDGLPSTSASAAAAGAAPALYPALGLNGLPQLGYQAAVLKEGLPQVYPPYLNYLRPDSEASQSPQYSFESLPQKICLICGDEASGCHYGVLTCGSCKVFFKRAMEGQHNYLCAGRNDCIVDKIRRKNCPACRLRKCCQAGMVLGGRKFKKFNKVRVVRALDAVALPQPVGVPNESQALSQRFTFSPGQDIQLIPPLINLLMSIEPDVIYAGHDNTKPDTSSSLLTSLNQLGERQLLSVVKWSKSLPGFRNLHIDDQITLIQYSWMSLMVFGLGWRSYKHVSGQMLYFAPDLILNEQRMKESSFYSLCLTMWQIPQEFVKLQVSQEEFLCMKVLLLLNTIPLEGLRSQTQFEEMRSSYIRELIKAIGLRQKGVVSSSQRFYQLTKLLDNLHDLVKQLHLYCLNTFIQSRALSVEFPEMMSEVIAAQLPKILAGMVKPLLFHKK

[4] = molecular target: Beta-2 adrenergic receptor (Homo sapiens, UniProt P07550); type: functional, cell-based
Beta-2 adrenergic receptor, sequence (P07550 whole entry): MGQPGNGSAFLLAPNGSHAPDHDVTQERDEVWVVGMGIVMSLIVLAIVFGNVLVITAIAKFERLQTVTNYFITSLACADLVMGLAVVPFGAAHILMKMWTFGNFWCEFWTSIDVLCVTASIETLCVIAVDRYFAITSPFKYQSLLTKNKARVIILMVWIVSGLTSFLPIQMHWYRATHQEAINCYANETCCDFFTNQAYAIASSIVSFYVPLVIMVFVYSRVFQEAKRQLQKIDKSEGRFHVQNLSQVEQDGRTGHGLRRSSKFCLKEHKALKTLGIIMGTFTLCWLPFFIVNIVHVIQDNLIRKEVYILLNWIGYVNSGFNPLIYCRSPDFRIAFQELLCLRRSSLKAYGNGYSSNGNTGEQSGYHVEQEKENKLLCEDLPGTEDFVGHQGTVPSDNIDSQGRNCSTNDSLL

[5] = molecular target: 5-hydroxytryptamine receptor 2B (Homo sapiens, UniProt P41595); type: functional, cell-based
5-hydroxytryptamine receptor 2B, sequence (P41595 whole entry): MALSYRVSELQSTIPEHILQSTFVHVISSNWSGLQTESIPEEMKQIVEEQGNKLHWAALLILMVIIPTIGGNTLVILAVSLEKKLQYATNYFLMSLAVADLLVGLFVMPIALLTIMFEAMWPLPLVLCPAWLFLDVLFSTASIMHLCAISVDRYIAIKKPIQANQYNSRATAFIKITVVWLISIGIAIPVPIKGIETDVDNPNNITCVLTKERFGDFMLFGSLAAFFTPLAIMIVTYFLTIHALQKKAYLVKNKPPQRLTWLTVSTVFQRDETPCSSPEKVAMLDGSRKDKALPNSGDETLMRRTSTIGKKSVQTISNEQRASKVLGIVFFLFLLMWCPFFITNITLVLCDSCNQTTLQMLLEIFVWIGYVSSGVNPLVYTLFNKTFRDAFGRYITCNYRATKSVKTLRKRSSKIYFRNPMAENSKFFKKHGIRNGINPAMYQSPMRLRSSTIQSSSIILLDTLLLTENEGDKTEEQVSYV

[6] = molecular target: T3, Muscarinic acetylcholine receptor M1 (Homo sapiens, UniProt P11229); type: functional
T3 sequence (P11229 whole entry): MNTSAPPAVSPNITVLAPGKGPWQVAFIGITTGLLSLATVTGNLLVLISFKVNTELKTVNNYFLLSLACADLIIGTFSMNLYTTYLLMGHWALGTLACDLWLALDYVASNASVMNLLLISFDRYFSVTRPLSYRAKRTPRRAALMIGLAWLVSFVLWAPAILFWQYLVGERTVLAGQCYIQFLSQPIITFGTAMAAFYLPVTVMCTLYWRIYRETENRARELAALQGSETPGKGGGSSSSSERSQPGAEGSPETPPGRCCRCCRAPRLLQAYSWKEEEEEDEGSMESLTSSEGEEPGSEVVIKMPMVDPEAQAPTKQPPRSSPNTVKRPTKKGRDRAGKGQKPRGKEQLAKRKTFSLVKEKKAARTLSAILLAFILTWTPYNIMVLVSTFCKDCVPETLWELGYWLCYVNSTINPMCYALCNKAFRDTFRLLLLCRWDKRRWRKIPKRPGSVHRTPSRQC
Further: assay procedure not described here.

## Nc1nc2ccc(OC(F)(F)F)cc2s1 [RILUZOLE]
[1]
  AC50: > 30 µM
Vasopressin V1a receptor
  AC50: > 30 µM
[2]
  AC50: > 30 µM
[3]
  AC50: > 30 µM
Progesterone receptor
  AC50: > 30 µM
[4]
  AC50: > 30 µM
[5]
  AC50: > 30 µM

## O=C1CN=C(c2ccccc2)c2cc(Cl)ccc2N1CC(F)(F)F [HALAZEPAM]
[1]
  AC50: > 30 µM
Vasopressin V1a receptor
  AC50: > 30 µM
[2]
  AC50: > 30 µM
[3]
  AC50: > 30 µM
Progesterone receptor
  AC50: > 30 µM
[4]
  AC50: > 30 µM
[6]
  AC50: > 30 µM
[5]
  AC50: > 30 µM

## C[C@]12CCC(=O)C=C1CC[C@@H]1[C@@H]2CC[C@@]2(C)[C@H]1CC[C@]2(C)O [METHYLTESTOSTERONE]
[1]
  AC50: > 30 µM
[2]
  AC50: > 30 µM
[3]
  AC50: > 30 µM
Progesterone receptor
  AC50: 0.2 µM
[4]
  AC50: > 30 µM
[5]
  AC50: > 30 µM

## C[C@H]1C[C@@H]2[C@H]([C@@H](O)C[C@@]3(C)[C@H]2CC[C@]3(O)C(=O)COC(=O)CCC(=O)O)[C@@]2(C)C=CC(=O)C=C12 [METHYLPREDNISOLONE HEMISUCCINATE]
[1]
  AC50: > 30 µM
Vasopressin V1a receptor
  AC50: > 30 µM
[2]
  AC50: > 30 µM
[3]
  AC50: > 30 µM
Progesterone receptor
  AC50: > 30 µM
[4]
  AC50: > 30 µM
[6]
  AC50: > 30 µM
[5]
  AC50: > 30 µM

## C=C1CC[C@@]2(O)[C@H]3Cc4ccc(O)c5c4[C@@]2(CCN3CC2CC2)[C@H]1O5
[1]
  AC50: > 30 µM
Vasopressin V1a receptor
  AC50: > 30 µM
[2]
  AC50: > 30 µM
[3]
  AC50: > 30 µM
Progesterone receptor
  AC50: > 30 µM
[4]
  AC50: > 30 µM
[6]
  AC50: > 30 µM
[5]
  AC50: > 30 µM

## CCCCCOC(=O)Nc1nc(=O)n([C@@H]2O[C@H](C)[C@@H](O)[C@H]2O)cc1F [CAPECITABINE]
[1]
  AC50: > 30 µM
Vasopressin V1a receptor
  AC50: > 30 µM
[2]
  AC50: > 30 µM
[3]
  AC50: > 30 µM
Progesterone receptor
  AC50: > 30 µM
[4]
  AC50: > 30 µM
[6]
  AC50: > 30 µM
[5]
  AC50: > 30 µM

## CCCOc1ccc(C(=O)OCCN(CC)CC)cc1N [PROPARACAINE]
[1]
  AC50: > 30 µM
[2]
  AC50: > 30 µM
[3]
  AC50: > 30 µM
Progesterone receptor
  AC50: > 30 µM
[4]
  AC50: > 30 µM
[5]
  AC50: > 30 µM

## CCCCC(C)(O)C/C=C/[C@H]1[C@H](O)CC(=O)[C@@H]1CCCCCCC(=O)OC (stereo not given in full) [MISOPROSTOL]
[1]
  AC50: > 30 µM
Vasopressin V1a receptor
  AC50: > 30 µM
[2]
  AC50: > 30 µM
[3]
  AC50: > 30 µM
Progesterone receptor
  AC50: > 30 µM
[4]
  AC50: > 30 µM
[6]
  AC50: > 30 µM
[5]
  AC50: > 30 µM

## Cc1c(Cl)cccc1Nc1ccccc1C(=O)O [TOLFENAMIC ACID]
[1]
  AC50: > 30 µM
Vasopressin V1a receptor
  AC50: > 30 µM
[2]
  AC50: > 30 µM
[3]
  AC50: > 30 µM
Progesterone receptor
  AC50: > 30 µM
[4]
  AC50: > 30 µM
[6]
  AC50: > 30 µM
[5]
  AC50: > 30 µM

## CCCCCCC(C)(C)c1cc(O)c2c(c1)OC(C)(C)C1CCC(=O)CC21 (stereo not given) [NABILONE]
[1]
  AC50: > 30 µM
Vasopressin V1a receptor
  AC50: > 30 µM
[2]
  AC50: > 30 µM
[3]
  AC50: > 30 µM
Progesterone receptor
  AC50: > 30 µM
[4]
  AC50: > 30 µM
[6]
  AC50: > 30 µM
[5]
  AC50: > 30 µM
